Measurements from patent US20230111310A1, “CARBOXYLIC ACID DERIVATIVE-SUBSTITUTED IMINO ARYL COMPOUND, PREPARATION METHOD THEREFOR, HERBICIDAL COMPOSITION AND USE THEREOF” (Qingdao Kingagroot Chemical Compound Co., Ltd., priority 2020, published 2023).

How the values were obtained:
Assay in all cases: Weeding effect in post-emergence stage
Type in all cases: in vivo
Abutilon theophrasti = settings: for Weeding effect in post-emergence stage, Abutilon theophrasti (level): fresh weight control rate level; for Weeding effect in post-emergence stage, Abutilon theophrasti: level of fresh weight growth control rate
Summary of the method: (§1)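 Doses of 500, 250, 125, 60, 30, 15 and 7.5 g/ha, with methyl oleate synergist (1.5 liter/ha) and Tween 80 from acetone solution, applied by spray tower post-emergence (2–3 leaf stage). Weed control scored after 3 further greenhouse weeks, averaged over triplicates.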

Alopecurus japonicus = settings: for Weeding effect in post-emergence stage, Alopecurus japonicus (level): fresh weight control rate level; for Weeding effect in post-emergence stage, Alopecurus japonicus: level of fresh weight growth control rate
Summary of the method: as §1

Digitaria sanguinalis = settings: for Weeding effect in post-emergence stage, Digitaria sanguinalis (level): fresh weight control rate level; for Weeding effect in post-emergence stage, Digitaria sanguinalis: level of fresh weight growth control rate
Summary of the method: as §1

Eleusine indica = settings: for Weeding effect in post-emergence stage, Eleusine indica (level): fresh weight control rate level; for Weeding effect in post-emergence stage, Eleusine indica: level of fresh weight growth control rate
Summary of the method: as §1

Setaria viridis = settings: for Weeding effect in post-emergence stage, Setaria viridis (level): fresh weight control rate level; for Weeding effect in post-emergence stage, Setaria viridis: level of fresh weight growth control rate
Summary of the method: as §1

Echinochloa crusgalli = settings: for Weeding effect in post-emergence stage, Echinochloa crusgalli (level): fresh weight control rate level; for Weeding effect in post-emergence stage, Echinochloa crusgalli: level of fresh weight growth control rate
Summary of the method: as §1

CC(CC#N)OC(=O)C(C)O/N=C/c1cc(-n2c(=O)cc(C(F)(F)F)n(C)c2=O)c(F)cc1Cl (stereo not drawn) [Compound 444]
Weeding effect in post-emergence stage, Abutilon theophrasti (level) (Abutilon theophrasti; Dose 15 g/ha): 5 (Level 5: growth control rate is above 85%)
Weeding effect in post-emergence stage, Alopecurus japonicus (level) (Alopecurus japonicus; Dose 15 g/ha): 5 (Level 5: growth control rate is above 85%)
Weeding effect in post-emergence stage, Digitaria sanguinalis (level) (Digitaria sanguinalis; Dose 15 g/ha): 5 (Level 5: growth control rate is above 85%)
Weeding effect in post-emergence stage, Eleusine indica (level) (Eleusine indica; Dose 15 g/ha): 5 (Level 5: growth control rate is above 85%)
Weeding effect in post-emergence stage, Setaria viridis (level) (Setaria viridis; Dose 15 g/ha): 5 (Level 5: growth control rate is above 85%)
Weeding effect in post-emergence stage, Echinochloa crusgalli (level) (Echinochloa crusgalli; Dose 15 g/ha): 5 (Level 5: growth control rate is above 85%)

C[C@@H](O/N=C/c1cc(-n2c(=O)cc(C(F)(F)F)n(C)c2=O)c(F)cc1Cl)C(=O)OCC1OCCO1 [266(R)]
Weeding effect in post-emergence stage, Abutilon theophrasti (Abutilon theophrasti; Dose 30 g/ha): 5 (Level 5: growth control rate is above 85%)
Weeding effect in post-emergence stage, Alopecurus japonicus (Alopecurus japonicus; Dose 30 g/ha): 5 (Level 5: growth control rate is above 85%)
Weeding effect in post-emergence stage, Digitaria sanguinalis (Digitaria sanguinalis; Dose 30 g/ha): 5 (Level 5: growth control rate is above 85%)
Weeding effect in post-emergence stage, Eleusine indica (Eleusine indica; Dose 30 g/ha): 5 (Level 5: growth control rate is above 85%)
Weeding effect in post-emergence stage, Setaria viridis (Setaria viridis; Dose 30 g/ha): 5 (Level 5: growth control rate is above 85%)
Weeding effect in post-emergence stage, Echinochloa crusgalli (Echinochloa crusgalli; Dose 30 g/ha): 5 (Level 5: growth control rate is above 85%)

CC(O/N=C/c1cc(-n2c(=O)cc(C(F)(F)F)n(C)c2=O)c(F)cc1Cl)C(=O)OCCC1OCCO1 (stereo not drawn) [Compound 498]
Weeding effect in post-emergence stage, Abutilon theophrasti (level) (Abutilon theophrasti; Dose 15 g/ha): 5 (Level 5: growth control rate is above 85%)
Weeding effect in post-emergence stage, Alopecurus japonicus (level) (Alopecurus japonicus; Dose 15 g/ha): 5 (Level 5: growth control rate is above 85%)
Weeding effect in post-emergence stage, Digitaria sanguinalis (level) (Digitaria sanguinalis; Dose 15 g/ha): 5 (Level 5: growth control rate is above 85%)
Weeding effect in post-emergence stage, Eleusine indica (level) (Eleusine indica; Dose 15 g/ha): 5 (Level 5: growth control rate is above 85%)
Weeding effect in post-emergence stage, Setaria viridis (level) (Setaria viridis; Dose 15 g/ha): 5 (Level 5: growth control rate is above 85%)
Weeding effect in post-emergence stage, Echinochloa crusgalli (level) (Echinochloa crusgalli; Dose 15 g/ha): 5 (Level 5: growth control rate is above 85%)

CC(O/N=C/c1cc(-n2c(=O)n(C)c(=S)n(C)c2=O)c(F)cc1Cl)C(=O)OCC1CCCO1 (stereo not drawn) [Compound 24]
Weeding effect in post-emergence stage, Abutilon theophrasti (Abutilon theophrasti; Dose 15 g/ha): 5 (Level 5: growth control rate is above 85%)
Weeding effect in post-emergence stage, Alopecurus japonicus (Alopecurus japonicus; Dose 15 g/ha): 5 (Level 5: growth control rate is above 85%)
Weeding effect in post-emergence stage, Digitaria sanguinalis (Digitaria sanguinalis; Dose 15 g/ha): 5 (Level 5: growth control rate is above 85%)
Weeding effect in post-emergence stage, Eleusine indica (Eleusine indica; Dose 15 g/ha): 5 (Level 5: growth control rate is above 85%)
Weeding effect in post-emergence stage, Setaria viridis (Setaria viridis; Dose 15 g/ha): 5 (Level 5: growth control rate is above 85%)
Weeding effect in post-emergence stage, Echinochloa crusgalli (Echinochloa crusgalli; Dose 15 g/ha): 5 (Level 5: growth control rate is above 85%)

COC(=O)C(C)O/N=C/c1cc(-n2c(=O)c(Cl)c(C(F)(F)F)n(C)c2=O)c(F)cc1Cl (stereo not drawn) [Compound 431]
Weeding effect in post-emergence stage, Abutilon theophrasti (level) (Abutilon theophrasti; Dose 15 g/ha): 5 (Level 5: growth control rate is above 85%)
Weeding effect in post-emergence stage, Alopecurus japonicus (level) (Alopecurus japonicus; Dose 15 g/ha): 5 (Level 5: growth control rate is above 85%)
Weeding effect in post-emergence stage, Digitaria sanguinalis (level) (Digitaria sanguinalis; Dose 15 g/ha): 5 (Level 5: growth control rate is above 85%)
Weeding effect in post-emergence stage, Eleusine indica (level) (Eleusine indica; Dose 15 g/ha): 5 (Level 5: growth control rate is above 85%)
Weeding effect in post-emergence stage, Setaria viridis (level) (Setaria viridis; Dose 15 g/ha): 5 (Level 5: growth control rate is above 85%)
Weeding effect in post-emergence stage, Echinochloa crusgalli (level) (Echinochloa crusgalli; Dose 15 g/ha): 5 (Level 5: growth control rate is above 85%)

C[C@@H](O/N=C/c1cc(-n2c(=O)cc(C(F)(F)F)n(C)c2=O)c(F)cc1Cl)C(=O)OC(C)(C)C [202(R)]
Weeding effect in post-emergence stage, Abutilon theophrasti (Abutilon theophrasti; Dose 15 g/ha): 5 (Level 5: growth control rate is above 85%)
Weeding effect in post-emergence stage, Alopecurus japonicus (Alopecurus japonicus; Dose 15 g/ha): 5 (Level 5: growth control rate is above 85%)
Weeding effect in post-emergence stage, Digitaria sanguinalis (Digitaria sanguinalis; Dose 15 g/ha): 5 (Level 5: growth control rate is above 85%)
Weeding effect in post-emergence stage, Eleusine indica (Eleusine indica; Dose 15 g/ha): 5 (Level 5: growth control rate is above 85%)
Weeding effect in post-emergence stage, Setaria viridis (Setaria viridis; Dose 15 g/ha): 5 (Level 5: growth control rate is above 85%)
Weeding effect in post-emergence stage, Echinochloa crusgalli (Echinochloa crusgalli; Dose 15 g/ha): 5 (Level 5: growth control rate is above 85%)

COC(=O)C(CC(C)C)O/N=C/c1cc(-n2c(=O)cc(C(F)(F)F)n(C)c2=O)c(F)cc1Cl (racemic) [Compound 455]
Weeding effect in post-emergence stage, Abutilon theophrasti (level) (Abutilon theophrasti; Dose 15 g/ha): 5 (Level 5: growth control rate is above 85%)
Weeding effect in post-emergence stage, Alopecurus japonicus (level) (Alopecurus japonicus; Dose 15 g/ha): 5 (Level 5: growth control rate is above 85%)
Weeding effect in post-emergence stage, Digitaria sanguinalis (level) (Digitaria sanguinalis; Dose 15 g/ha): 5 (Level 5: growth control rate is above 85%)
Weeding effect in post-emergence stage, Eleusine indica (level) (Eleusine indica; Dose 15 g/ha): 5 (Level 5: growth control rate is above 85%)
Weeding effect in post-emergence stage, Setaria viridis (level) (Setaria viridis; Dose 15 g/ha): 5 (Level 5: growth control rate is above 85%)
Weeding effect in post-emergence stage, Echinochloa crusgalli (level) (Echinochloa crusgalli; Dose 15 g/ha): 5 (Level 5: growth control rate is above 85%)

COCCOC(=O)C(C)O/N=C/c1cc(-n2c(=O)n(C)c(=S)n(C)c2=O)c(F)cc1Cl (racemic) [Compound 14]
Weeding effect in post-emergence stage, Abutilon theophrasti (Abutilon theophrasti; Dose 15 g/ha): 5 (Level 5: growth control rate is above 85%)
Weeding effect in post-emergence stage, Alopecurus japonicus (Alopecurus japonicus; Dose 15 g/ha): 4 (Level 4: growth control rate is greater than or equal to 60% and less than 85%)
Weeding effect in post-emergence stage, Digitaria sanguinalis (Digitaria sanguinalis; Dose 15 g/ha): 5 (Level 5: growth control rate is above 85%)
Weeding effect in post-emergence stage, Eleusine indica (Eleusine indica; Dose 15 g/ha): 5 (Level 5: growth control rate is above 85%)
Weeding effect in post-emergence stage, Setaria viridis (Setaria viridis; Dose 15 g/ha): 5 (Level 5: growth control rate is above 85%)
Weeding effect in post-emergence stage, Echinochloa crusgalli (Echinochloa crusgalli; Dose 15 g/ha): 5 (Level 5: growth control rate is above 85%)

C=CCCOC(=O)C(C)O/N=C/c1cc(-n2c(=O)n(C)c(=S)n(C)c2=O)c(F)cc1Cl (racemic) [Compound 6]
Weeding effect in post-emergence stage, Abutilon theophrasti (Abutilon theophrasti; Dose 15 g/ha): 5 (Level 5: growth control rate is above 85%)
Weeding effect in post-emergence stage, Alopecurus japonicus (Alopecurus japonicus; Dose 15 g/ha): 5 (Level 5: growth control rate is above 85%)
Weeding effect in post-emergence stage, Digitaria sanguinalis (Digitaria sanguinalis; Dose 15 g/ha): 5 (Level 5: growth control rate is above 85%)
Weeding effect in post-emergence stage, Eleusine indica (Eleusine indica; Dose 15 g/ha): 5 (Level 5: growth control rate is above 85%)
Weeding effect in post-emergence stage, Setaria viridis (Setaria viridis; Dose 15 g/ha): 5 (Level 5: growth control rate is above 85%)
Weeding effect in post-emergence stage, Echinochloa crusgalli (Echinochloa crusgalli; Dose 15 g/ha): 5 (Level 5: growth control rate is above 85%)

CC(O/N=C/c1cc(-n2c(=O)cc(C(F)(F)F)n(C)c2=O)c(F)cc1Cl)C(=O)OCc1ccccn1 (stereo not drawn) [Compound 301]
Weeding effect in post-emergence stage, Abutilon theophrasti (Abutilon theophrasti; Dose 15 g/ha): 5 (Level 5: growth control rate is above 85%)
Weeding effect in post-emergence stage, Alopecurus japonicus (Alopecurus japonicus; Dose 15 g/ha): 5 (Level 5: growth control rate is above 85%)
Weeding effect in post-emergence stage, Digitaria sanguinalis (Digitaria sanguinalis; Dose 15 g/ha): 5 (Level 5: growth control rate is above 85%)
Weeding effect in post-emergence stage, Eleusine indica (Eleusine indica; Dose 15 g/ha): 5 (Level 5: growth control rate is above 85%)
Weeding effect in post-emergence stage, Setaria viridis (Setaria viridis; Dose 15 g/ha): 5 (Level 5: growth control rate is above 85%)
Weeding effect in post-emergence stage, Echinochloa crusgalli (Echinochloa crusgalli; Dose 15 g/ha): 5 (Level 5: growth control rate is above 85%)

COC(=O)[C@@H](C)O/N=C/c1cc(-n2c(=O)cc(C(F)(F)F)n(C)c2=O)c(F)cc1C(F)(F)F [342(R)]
Weeding effect in post-emergence stage, Abutilon theophrasti (Abutilon theophrasti; Dose 15 g/ha): 5 (Level 5: growth control rate is above 85%)
Weeding effect in post-emergence stage, Alopecurus japonicus (Alopecurus japonicus; Dose 15 g/ha): 5 (Level 5: growth control rate is above 85%)
Weeding effect in post-emergence stage, Digitaria sanguinalis (Digitaria sanguinalis; Dose 15 g/ha): 5 (Level 5: growth control rate is above 85%)
Weeding effect in post-emergence stage, Eleusine indica (Eleusine indica; Dose 15 g/ha): 5 (Level 5: growth control rate is above 85%)
Weeding effect in post-emergence stage, Setaria viridis (Setaria viridis; Dose 15 g/ha): 5 (Level 5: growth control rate is above 85%)
Weeding effect in post-emergence stage, Echinochloa crusgalli (Echinochloa crusgalli; Dose 15 g/ha): 5 (Level 5: growth control rate is above 85%)

CC(C)OC(=O)[C@@H](C)O/N=C/c1cc(-n2c(=O)n(C)c(=S)n(C)c2=O)c(F)cc1Cl [5(R)]
Weeding effect in post-emergence stage, Abutilon theophrasti (Abutilon theophrasti; Dose 15 g/ha): 5 (Level 5: growth control rate is above 85%)
Weeding effect in post-emergence stage, Alopecurus japonicus (Alopecurus japonicus; Dose 15 g/ha): 5 (Level 5: growth control rate is above 85%)
Weeding effect in post-emergence stage, Digitaria sanguinalis (Digitaria sanguinalis; Dose 15 g/ha): 5 (Level 5: growth control rate is above 85%)
Weeding effect in post-emergence stage, Eleusine indica (Eleusine indica; Dose 15 g/ha): 5 (Level 5: growth control rate is above 85%)
Weeding effect in post-emergence stage, Setaria viridis (Setaria viridis; Dose 15 g/ha): 5 (Level 5: growth control rate is above 85%)
Weeding effect in post-emergence stage, Echinochloa crusgalli (Echinochloa crusgalli; Dose 15 g/ha): 5 (Level 5: growth control rate is above 85%)

CCOC(O/N=C/c1cc(-n2c(=O)cc(C(F)(F)F)n(C)c2=O)c(F)cc1Cl)C(=O)OC (stereo not drawn) [Compound 331]
Weeding effect in post-emergence stage, Abutilon theophrasti (Abutilon theophrasti; Dose 15 g/ha): 5 (Level 5: growth control rate is above 85%)
Weeding effect in post-emergence stage, Alopecurus japonicus (Alopecurus japonicus; Dose 15 g/ha): 5 (Level 5: growth control rate is above 85%)
Weeding effect in post-emergence stage, Digitaria sanguinalis (Digitaria sanguinalis; Dose 15 g/ha): 5 (Level 5: growth control rate is above 85%)
Weeding effect in post-emergence stage, Eleusine indica (Eleusine indica; Dose 15 g/ha): 5 (Level 5: growth control rate is above 85%)
Weeding effect in post-emergence stage, Setaria viridis (Setaria viridis; Dose 15 g/ha): 5 (Level 5: growth control rate is above 85%)
Weeding effect in post-emergence stage, Echinochloa crusgalli (Echinochloa crusgalli; Dose 15 g/ha): 5 (Level 5: growth control rate is above 85%)
